# Columns and labels:
# Type in all cases: biochemical, human
# normal plasma pool (NPP) [1] = assay: PiCT Method 1 (standard Pefakit PiCT) clotting time on ACL TOP 500; conditions: for Clotting time with PiCT ® Method 1: spiked plasma
# Description: As described by Korte et al. (supra) or in EP 1240528, Pefakit® PiCT® is a functional clotting assay based on the direct activation of the prothrombinase complex which results in a fine-tuned analytical output directly proportional to the final anticoagulant activity of the factor Xa or factor IIa inhibitors (see Calatzis, Haemostasis 2000, 30:172-174). To perform the Pefakit® PiCT® test (referred to herein as standard “PiCT® or PiCT® Method 1), a defined amount of PiCT® activator (=reagent 1) is added to a sample, such as, e.g., plasma. The mixture is allowed to proceed at 37° C. for a specific period of time. The Start reagent (=reagent 2) is then added to the mixture and the time required for clot formation is measured. The presence of anticoagulants in the samples dose-dependently prolongs the time to clot. Pefakit® PiCT® is adapted to laboratory instruments based on mechanical or optical detection systems, including but not limited to ACL TOP® family (Instrumentation Laboratory), preferably ACL TOP® 500, STA Compact® series (Stago) or the BCS® XP series (Siemens).
# The 4 methods (see above) are in more detail described in the Examples. Specific pipetting schemes were designed using NPP spiked with incremental amounts of anticoagulants in order to achieve high reproducibility of the test system, which is required for drug identification including use in a POC system. With regards to the ACL TOP® 500 analyzer, PiCT® Method 1 to 4 has been established as follows: • PiCT® Method 1: 50 μl of plasma is incubated for 180 sec with 50 μl of reagent 1 and afterwards 50 μl of reagent 2 is added and the time to clot is recorded on the ACL TOP® 500 (i.e. pipetting scheme: P-50/A-50/I-180/50-S). This method is in particularly useful for detection of UFH, LMWH or hirudin. • PiCT® Method 2: P-75/A-65/I-180/35-S on the ACL TOP® 500 or P-80/A-65/I-180/40-S on the STA Compact® or P-75/A-65/I-180/S-40 on the BCS® XP. This method is in particularly useful for fondaparinux. • PiCT® Method 3: P-90/A-70/I-180/40-S on the ACL TOP® 500 or STA Compact®, or P-70/A-60/I-180/45-S on the BCS® XP. This method is in particularly useful for dabigatran or argatroban. • PiCT® Method 4: P-140/S-45/I160/A-40 on the ACL TOP® 500 or STA Compact®, or P-125/S-45/I-150/A-40 on the BCS® XP. This method is in particularly useful for rivaroxaban or apixaban.
# With the normal PiCT®, i.e. PiCT® Method 1, wherein 50 μl of plasma is mixed with the same amount of reagent 1 (PiCT® activator), incubated for 180 sec and mixed with the same amount of reagent 2 (PiCT® start reagent) in a ACL TOP® 500 analyzer, the presence of NOACs cannot be determined in a sample. This is true even at high levels of said drugs in the sample, i.e. in the range of 300 ng/ml. Thus, in order to determine which NOAC is present in the sample, a combination of PiCT® Method 1 and PiCT® method 4 has to be used (see above for detailed description). To confirm this, spiked plasma samples with different levels of NOACs were prepared and the clotting time measured using first PiCT® Method 1 followed by PiCT® Method 4. […] In case of dabigatran present in the sample, both PiCT® Method 1 (which had to be adapted, i.e. PiCT® Method 3) and 4 are out of range as indicated in bold.
# plasma samples = assay: aPTT (HemosIL aPTT SP) clotting time; conditions: for Clotting time with aPTT: Table 6, spiked plasma, mean
# Protocol: In order to address the above question, i.e. to determine the nature of an anticoagulant in a sample, a combination of several methods has to be performed, including PiCT® Method 1, PiCT® Method 4, aPTT (HemosIL™ aPTT SP), PT (HemosIL™ PT recombiplastin), and sometimes even a modified PiCT® Method 1 wherein polybrene has been added. In order to simulate this, plasma samples spiked with different levels of anticoagulants were analyzed using the ACL TOP® 500 analyzer. For each drug, a specific pattern was obtained, i.e. clotting times within the RR and clotting times above the RR, depending on the used testing method, which is unique at least for the class of anticoagulant or even for a specific anticoagulant.
# normal plasma pool (NPP) [2] = assay: PiCT Method 4 (inverted PiCT) clotting time on ACL TOP 500; conditions: for Clotting time: Table 10A, PiCT Method 4, NPP spiked, mean n = 4; for PiCT ® method 4 clotting time: Table 11
# Protocol: The present invention is in one aspect directed to the use of a clotting assay, in particular the PiCT® testing method on a detection system such as e.g. the ACL TOP® 500 analyzer and to a method to quantitatively and qualitatively detect anticoagulants in a sample, e.g. blood or plasma. […] PiCT® Method 4 or PiCT® inverted includes that first the start reagent is added to the sample, the mixture allowed to proceed according to the manufacturer's instructions followed by addition of the activator, i.e. a reversed order compared to standard PiCT® (see above). PiCT® Method 1 to 4 is described in more detail in the Examples.
# The 4 methods (see above) are in more detail described in the Examples. Specific pipetting schemes were designed using NPP spiked with incremental amounts of anticoagulants in order to achieve high reproducibility of the test system, which is required for drug identification including use in a POC system. With regards to the ACL TOP® 500 analyzer, PiCT® Method 1 to 4 has been established as follows: • PiCT® Method 1: 50 μl of plasma is incubated for 180 sec with 50 μl of reagent 1 and afterwards 50 μl of reagent 2 is added and the time to clot is recorded on the ACL TOP® 500 (i.e. pipetting scheme: P-50/A-50/I-180/50-S).
# After calculation of the RR for the different kind of anticoagulants (see Example 1) samples of NPP spiked with incremental amounts of anticoagulants were used in the ACL TOP® 500, wherein 45 μl start reagent was incubated with 140 μl plasma for 60 sec. The time to clot was recorded after addition of 40 μl of activator (i.e. so-called inverted PiCT®).
structure (smiles),measurement,setting,value
O=C(NC[C@H]1CN(c2ccc(N3CCOCC3=O)cc2)C(=O)O1)c1ccc(Cl)s1 [rivaroxaban],Clotting time with PiCT ® Method 1,"normal plasma pool (NPP) [1]; Table 5, 20 ng per ml (title: Method 3 for dabigatran)",17 s
same,Clotting time with PiCT ® Method 1,"normal plasma pool (NPP) [1]; Table 5, 35 ng per ml (title: Method 3 for dabigatran)",18 s
same,Clotting time with PiCT ® Method 1,"normal plasma pool (NPP) [1]; Table 5, 300 ng per ml (title: Method 3 for dabigatran)",29.3 s
same,Clotting time with PiCT ® Method 1,"normal plasma pool (NPP) [1]; Table 6, 50 ng, mean",19.0 s
same,Clotting time with PiCT ® Method 1,"normal plasma pool (NPP) [1]; Table 6, 200 ng, mean",25.5 s
same,Clotting time with standard PiCT (Method 1) relative to reference range (RR),normal plasma pool (NPP) [1]; concentrations in the range of about 300 ng/ml in the sample,in the RR
same,Clotting time with aPTT,plasma samples; 50 ng,34.5 s
same,Clotting time with aPTT,plasma samples; 200 ng,49.6 s
same,aPTT clotting time relative to reference range (RR),"plasma samples; only at higher doses, in the range of 200 ng or more",above the RR
same,Clotting time with PiCT ® Method 4,"normal plasma pool (NPP) [2]; Table 4, NPP spiked with 20 ng per ml",70 s
same,Clotting time with PiCT ® Method 4,"normal plasma pool (NPP) [2]; Table 4, NPP spiked with 35 ng per ml",80 s
same,Clotting time with PiCT ® Method 4,"normal plasma pool (NPP) [2]; Table 5, spiked plasma, 20 ng per ml",70 s
same,Clotting time with PiCT ® Method 4,"normal plasma pool (NPP) [2]; Table 5, spiked plasma, 35 ng per ml",80 s
same,Clotting time with PiCT ® Method 4,"normal plasma pool (NPP) [2]; Table 5, spiked plasma, 300 ng per ml",162.1 s
same,Clotting time with PiCT ® Method 4,"normal plasma pool (NPP) [2]; Table 6, spiked plasma, 50 ng, mean",83.6 s
same,Clotting time with PiCT ® Method 4,"normal plasma pool (NPP) [2]; Table 6, spiked plasma, 200 ng, mean",132.8 s
same,Clotting time,normal plasma pool (NPP) [2]; 5 ng/ml,71 s
same,Clotting time,normal plasma pool (NPP) [2]; 10 ng/ml,83 s
same,Clotting time,normal plasma pool (NPP) [2]; 50 ng/ml,118 s
same,Clotting time,normal plasma pool (NPP) [2]; 100 ng/ml,149 s
same,Clotting time,normal plasma pool (NPP) [2]; 200 ng/ml,191 s
same,Clotting time,normal plasma pool (NPP) [2]; 300 ng/ml,220 s
same,Clotting time,normal plasma pool (NPP) [2]; 400 ng/ml,248 s
same,Clotting time,normal plasma pool (NPP) [2]; 500 ng/ml,270 s
same,Clotting time,normal plasma pool (NPP) [2]; 600 ng/ml,278 s
same,PiCT ® method 4 clotting time,"normal plasma pool (NPP) [2]; spiked plasma, 20 ng/mL (wash off level)",70 sec (n = 3)
same,PiCT ® method 4 clotting time,"normal plasma pool (NPP) [2]; spiked plasma, 35 ng/mL (wash off level)",80 sec (n = 3)
CC1CNc2c(cccc2S(=O)(=O)N[C@@H](CCCNC(=N)N)C(=O)N2CC[C@@H](C)C[C@@H]2C(=O)O)C1 (stereo partly shown) [argatroban],Clotting time with PiCT ® Method 1,"normal plasma pool (NPP) [1]; Table 6, 0.3 μg, mean",98.5 s
same,Clotting time with PiCT ® Method 1,"normal plasma pool (NPP) [1]; Table 6, 1.5 μg, mean",150.3 s
same,Clotting time with aPTT,plasma samples; 0.3 μg,61.7 s
same,Clotting time with aPTT,plasma samples; 1.5 μg,106.2 s
same,Clotting time with PiCT ® Method 4,"normal plasma pool (NPP) [2]; Table 4, NPP spiked with 0.3 μg per ml",147 s
same,Clotting time with PiCT ® Method 4,"normal plasma pool (NPP) [2]; Table 6, spiked plasma, 0.3 μg, mean",147.4 s
same,Clotting time with PiCT ® Method 4,"normal plasma pool (NPP) [2]; Table 6, spiked plasma, 1.5 μg, mean",300.0 s

# Source: patent US11846640B2, “Identification of anticoagulants in a sample” (DSM IP Assets B.V., priority 2013, dated 2023)
